Test results taken from patent US12054510B2, “2′ and/or 5′ amino-acid ester phosphoramidate 3′-deoxy adenosine derivatives as anti-cancer compounds” (Nucana plc, priority 2014, dated 2024).

Legend:
Type in all cases: cell-based
[1] = system: leukaemic stem cell (LSC) compartment within the KG1a cell line; assay: Immunophenotypic identification of the leukaemic stem cell compartment; conditions: 72 h; for targeting of LSCs (LSC as percentage of all viable cells left in culture): FIG. 2-4; for preferential targeting of LSCs compared with the parent nucleoside: compound A at 1 mM and above
Procedure: KG1a cells were cultured for 72 h in the presence of a wide range of concentrations of each compound assayed. Cells were then harvested and labelled with a cocktail of anti-lineage antibodies (PE-cy7), anti-CD34 (FITC), anti-CD38 (PE) and anti-CD123 (PERCP cy5). The sub-population expressing a LSC phenotype were subsequently identified and were expressed as a percentage of all viable cells left in the culture. The percentages of stem cells remaining were then plotted on a dose-response graph and the effects of the compounds were compared with each other, and with the parent nucleoside.
The data obtained in these experiments were evaluated using one way ANOVA. All data was confirmed as Gaussian or a Gaussian approximation using the omnibus K2 test. LD50 values were calculated from the non-linear regression and line of best-fit analysis of the sigmoidal dose-response curves. All statistical analyses were performed using Graphpad Prism 6.0 software (Graphpad Software Inc., San Diego, CA).

K562 = assay: CellTiterGlo cell viability assay, initial screening; conditions: 72 hr, Table II
Procedure: (§1) In vitro viability assays were performed to assess the effects of compounds on cell viability in 7 selected cell lines over 72 hr using the CellTiterGlo (CTG, Promega-G7573) assay. The tests were performed in duplicates with treatment of compounds at 9 points, 3.16 folds titration in 96 well plates over ˜72 hr. The compound starting concentrations were […]. Cell viability assay using CellTiterGlo in 96-well plate were performed. The compound treatment was 72 hrs, under standard growth conditions, and in duplicate. Compounds were dissolved to 40 mM with thawed […]. Compounds were serially diluted at 3.16 fold in thawed DMSO, and warmed to 37° C. before being dissolved in media (2 μl+200 μl). After compounds were dissolved in media (media was also warmed to 37° C.). Media containing compounds were warmed to 37° C. in incubator and then compounds in media were added to cell plates (50 μl+50 μl), in duplicates. The compounds final concentrations were from […] to 19.9 nM. All compound solubilities were checked and recorded again, then the plates were transferred to CO2 tissue culture incubator immediately and incubated for 3 days. DMSO final concentration is 0.5%.

MCF-7 = assay: as above; conditions: MCF-7; 72 hr; Table II
Procedure: as §1

MOLT-4 = assay: as above
Procedure: as §1

CCRF-CEM = assay: as above
Procedure: as §1

HL-60 = assay: as above; conditions: for IC50: Homo sapiens, HL-60, 72 h, read-out: IC50 (relative IC50)
Procedure: as §1

KG-1 = assay: as above
Procedure: as §1

HepG2 = assay: as above; conditions: for M.I. %: maximum percentage inhibition of cell viability: HepG2, 72 hr, Table II
Procedure: as §1

SMILES	targeting of LSCs (LSC as percentage of all viable cells left in culture) [1]	preferential targeting of LSCs compared with the parent nucleoside [1]	M.I. %: maximum percentage inhibition of cell viability (K562) [%]	M.I. %: maximum percentage inhibition of cell viability (MCF-7) [%]	M.I. %: maximum percentage inhibition of cell viability (HepG2) [%]	M.I. %: maximum percentage inhibition of cell viability (MOLT-4; MOLT-4, 72 hr, Table II) [%]	M.I. %: maximum percentage inhibition of cell viability (CCRF-CEM; CCRF-CEM, 72 hr, Table II) [%]	M.I. %: maximum percentage inhibition of cell viability (HL-60; HL-60, 72 hr, Table II) [%]	M.I. %: maximum percentage inhibition of cell viability (KG-1; KG-1, 72 hr, Table II) [%]	also measured
C[C@H](NP(=O)(OC[C@@H]1C[C@@H](O)[C@H](n2cnc3c(N)nc(F)nc32)O1)Oc1ccccc1)C(=O)OCc1ccccc1 (mixture of isomers) [P, (2S)-benzyl 2-(((((2S,4R,5R)-5-(6-amino-2-fluoro-9H-purin-9-yl)-4-hydroxytetrahydrofuran-2-yl)methoxy)(phenoxy)phosphoryl)amino)propanoate]	preferential targeting of LSCs	significantly improved when compared with the parental nucleoside								
C[C@H](NP(=O)(N[C@@H](C)C(=O)OCc1ccccc1)OC[C@@H]1CC(O)[C@H](n2cnc3c(N)ncnc32)O1)C(=O)OCc1ccccc1 (stereo in doubt) [Compound J, Benzyl 2-[({[5-(6-amino-9H-purin-9-yl)-4-hydroxyoxolan-2-yl]methoxy}({[1-(benzyloxy)-1-oxopropan-2-yl]amino})phosphoryl)amino]propanoate]			97	97	55					M.I. %: maximum percentage inhibition of cell viability (MOLT-4; human, 72 h): 100%; M.I. %: maximum percentage inhibition of cell viability (CCRF-CEM; human, 72 h): 100%; M.I. %: maximum percentage inhibition of cell viability (HL-60; human, 72 h): 98%; M.I. %: maximum percentage inhibition of cell viability (KG-1; human, 72 h): 29%
C[C@H](NP(=O)(Oc1cccc2ccccc12)O[C@@H]1C[C@@H](CO)O[C@H]1n1cnc2c(N)ncnc21)C(=O)OCc1ccccc1 (stereo partly drawn) [Compound I, (2S)-benzyl 2-(((((2R,3R,5S)-2-(6-amino-9H-purin-9-yl)-5-(hydroxymethyl)tetrahydro-furan-3-yl)oxy)(naphthalen-1-yloxy)phosphoryl)amino)propanoate]			87	99	90	100	99	99	93	
C[C@H](NP(=O)(OC[C@@H]1C[C@H](O)[C@H](n2cnc3c(N)nc(F)nc32)O1)Oc1cccc2ccccc12)C(=O)OCc1ccccc1 (stereo partly drawn) [Compound O]	able to bring about a reduction in the proportion of LSCs	not significantly different to 2-F-Cordycepin								
CCCCCOC(=O)[C@H](CC(C)C)NP(=O)(OC[C@@H]1C[C@H](O)[C@H](n2cnc3c(N)nc(F)nc32)O1)Oc1cccc2ccccc12 (stereo partly drawn) [Compound Q, 2-Fluoro-3′-deoxyadenosine-5′-O-[1-naphthyhl(1-pentyloxy-L-leucinyl)]phosphate]	preferential targeting of LSCs	significantly improved when compared with the parental nucleoside								
C[C@H](NP(=O)(Oc1ccccc1)O[C@@H]1C[C@@H](CO)O[C@H]1n1cnc2c(N)ncnc21)C(=O)OCc1ccccc1 (stereo partly drawn) [G, (2S)-benzyl 2-(((((2R,3R,5S)-2-(6-amino-9H-purin-9-yl)-5-(hydroxymethyl)tetrahydro-furan-3-yl)oxy)(phenoxy)phosphoryl)amino)propanoate]			78	97	67	75	65	57	63	IC50 (HL-60): 15 to 100 µM; IC50 (HepG2; Homo sapiens, HepG2, 72 h, read-out: IC50 (relative IC50)): 15 to 100 µM
C[C@H](NP(=O)(OC[C@@H]1C[C@@H](OP(=O)(N[C@@H](C)C(=O)OCc2ccccc2)Oc2ccccc2)[C@H](n2cnc3c(N)ncnc32)O1)Oc1ccccc1)C(=O)OCc1ccccc1 (stereo partly drawn) [H, Benzyl 2-(((((2S,4R,5R)-5-(6-amino-9H-purin-9-yl)-4-((((1-(benzyloxy)-1-oxopropan-2-yl)amino)(phenoxy)phosphoryl)oxy)tetrahydrofuran-2-yl)methoxy)(phenoxy)phosphoryl)-amino)propanoate]			89	94	55	100	100	80	69	IC50 (HL-60): 15 to 100 µM
CCCCCCOC(=O)[C@H](C)NP(=O)(OC[C@@H]1C[C@@H](O)[C@H](n2cnc3c(N)nc(F)nc32)O1)Oc1ccccc1 (stereo partly drawn) [R, (2S)-hexyl 2-(((((2S,4R,5R)-5-(6-amino-2-fluoro-9H-purin-9-yl)-4-hydroxytetrahydrofuran-2-yl)methoxy)(phenoxy)phosphoryl)amino)propanoate]	preferential targeting of LSCs	significantly improved when compared with the parental nucleoside								
